Assay results as given in US20110112151A1, “COMPOUND CAPABLE OF INHIBITING 11-BETA HYDROXYSTERIOD DEHYDROGENASE” (priority 2008, published 2011).

Target: T1, 11β-HSD1 (Homo sapiens, UniProt P28845)
T1 construct: expressed in transfected cells; host or cells: HEK 293 (stably transfected, HEK 293/HSD11B1)
Test: 11β-HSD1 HEK assay (cell based assay, SPA)
Conditions: at 1 μM, whole HEK 293 cells stably transfected with the HSD11B1 gene, 3H-cortisone substrate; for inhibition at 1 µM: HEK293, read-out: Activity (inhibition of 11β-HSD1)
Experimental: 11β-HSD1 HEK Assay Protocol (Cell Based Assay)
11β-HSD1 activity is measured in whole HEK 293 cells stably transfected with the HSD11B1 gene. Cells are incubated in 96-well microplates in the presence of tritiated substrate. Enzyme activity is determined by measuring the amount of tritated product by scintillation proximity assay (SPA). Assay plates contain internal high and low controls to allow calculation of percentage inhibition.
1. […] 2. When the cells are 80% confluent the medium is removed from each well. 100 μl fresh, serum-free, medium containing ^3H-cortisone and test compound in 1% DMSO is added to each well*. Control wells are also dispensed. […] 3. The plate is incubated at 37° C. for the required time period. 4. 50 μl of media is removed from each well and transferred to a microplate containing 100 μl of a pre-incubated mixture of anti-cortisol antibody and SPA bead. The mixture is incubated with gentle shaking until equilibrium is reached, before transferring to a scintillation counter to establish the enzyme activity in each sample.
10 μl of compound is dispensed into each well of a 96-well microplate in 10% DMSO at 100 μM concentration. 90 μl media containing ^3H-cortisone is added to each well. The compound/media/substrate mixture is then transferred to the assay plate containing the cells. […]

T1 sequence (P28845 whole entry): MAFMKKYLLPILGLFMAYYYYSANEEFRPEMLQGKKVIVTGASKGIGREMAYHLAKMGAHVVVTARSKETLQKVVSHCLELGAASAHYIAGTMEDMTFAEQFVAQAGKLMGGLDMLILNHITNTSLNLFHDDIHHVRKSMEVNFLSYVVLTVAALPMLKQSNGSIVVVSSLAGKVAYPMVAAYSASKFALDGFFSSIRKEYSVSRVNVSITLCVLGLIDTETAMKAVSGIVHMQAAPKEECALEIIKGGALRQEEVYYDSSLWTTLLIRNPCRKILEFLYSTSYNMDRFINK

Question: Which inhibition at 1 µM does the source give for O=C(C[S+]([O-])c1ccccn1)C1(c2ccc(Cl)cc2)CC1 (stereo not drawn) [Example 5, 1-[1-(4-Chloro-phenyl)-cyclopropyl]-2-(pyridine-2-sulfinyl)-ethanone] here?
Answer: 20 to 60%

Question: Which inhibition at 1 µM does the source give for Cc1cc(C)c(C(=O)COc2ccc(C)nc2)c(C)c1 [Example 70, 2-(6-Methyl-pyridin-3-yloxy)-1-(2,4,6-trimethyl-phenyl)-ethanone] here?
Answer: < 20%

Question: Cn1ccnc1[S+]([O-])CC(=O)C1(c2ccc(Cl)cc2)CCCC1 (stereo not drawn) [Example 44, 1-[1-(4-Chloro-phenyl)-cyclopentyl]-2-(1-methyl-1H-imidazole-2-sulfinyl)-ethanone] was tested. Which inhibition at 1 µM did it give?
Answer: 20 to 60%

Question: With Cn1ccnc1S(=O)(=O)CC(=O)C1(c2ccc(Cl)cc2)CCCCC1 [Example 45, 1-[1-(4-Chloro-phenyl)-cyclohexyl]-2-(1-methyl-H-imidazole-2-sulfonyl)-ethanone] as the compound, how does the “Activity (inhibition of 11β-HSD1)” value read?
Answer: b (from 20 to 60% inhibition of 11β-HSD1 at 1 μM)

Question: Cn1ccnc1S(=O)(=O)CC(=O)C1(c2ccc(Cl)cc2)CC1 [Example 3, 1-[1-(4-Chloro-phenyl)-cyclopropyl]-2-(1-methyl-1H-imidazole-2-sulfonyl)-ethanone] was tested. Which inhibition at 1 µM did it give?
Answer: < 20%

Question: With O=C(CSCc1ccc(C(F)(F)F)nc1)C12CC3CC(CC(C3)C1)C2 [Example 59, 1-Adamantan-1-yl-2-(6-trifluoromethyl-pyridin-3-ylmethylsulfanyl)-ethanone] as the compound, how does the inhibition at 1 µM read?
Answer: 20 to 60%

Question: How did the inhibition at 1 µM turn out when O=C(C[S+]([O-])c1ccc(C(F)(F)F)cn1)C12CC3CC(CC(C3)C1)C2 (stereo not drawn) [Example 68, 1-Adamantan-1-yl-2-(5-trifluoromethyl-pyridine-2-sulfinyl)-ethanone] was run?
Answer: 20 to 60%

Question: For Cn1ccnc1SCC(=O)C1(c2ccc(Cl)cc2)CCC1 [Example 21, 1-[1-(4-Chloro-phenyl)-cyclobutyl]-2-(1-methyl-1H-imidazol-2-ylsulfanyl)-ethanone], which inhibition at 1 µM is on record?
Answer: 20 to 60%

Question: O=C(CSCc1ccncc1)C12CC3CC(CC(C3)C1)C2 [Example 81, 1-Adamantan-1-yl-2-(pyridin-4-ylmethylsulfanyl)-ethanone] was tested. Which inhibition at 1 µM did it give?
Answer: > 60%

Question: Cn1ccnc1S(=O)(=O)CC(=O)C1(c2ccc(Cl)cc2)CCCC1 [Example 43, 1-[1-(4-Chloro-phenyl)-cyclopentyl]-2-(1-methyl-1H-imidazole-2-sulfonyl)-ethanone] was tested. Which inhibition at 1 µM did it give?
Answer: 20 to 60%

Question: With O=C(COCc1ccccn1)C1(c2ccc(Cl)cc2)CCC1 [Example 42, 1-[1-(4-Chloro-phenyl)-cyclobutyl]-2-(pyridin-2-ylmethoxy)-ethanone] as the compound, how does the inhibition at 1 µM read?
Answer: < 20%

Question: With Cc1cc(C)c(C(=O)CS(=O)(=O)c2ccccn2)c(C)c1 [Example 75, 2-(Pyridine-2-sulfonyl)-1-(2,4,6-trimethyl-phenyl)-ethanone] as the compound, how does the inhibition at 1 µM read?
Answer: < 20%

Question: With O=C(CS(=O)(=O)Cc1ccc(C(F)(F)F)nc1)C12CC3CC(CC(C3)C1)C2 [Example 69, 1-Adamantan-1-yl-2-(6-trifluoromethyl-pyridin-3-ylmethanesulfonyl)-ethanone] as the compound, how does the inhibition at 1 µM read?
Answer: 20 to 60%

Question: For O=C(C[S+]([O-])c1ccncc1)C12CC3CC(CC(C3)C1)C2 (stereo not drawn) [Example 33, 1-(adamantan-1-yl)-2-(pyridine-4-sulfinyl)ethan-1-one], which inhibition at 1 µM is on record?
Answer: > 60%

Question: For NC(=O)c1ccc(SCC(=O)C23CC4CC(CC(C4)C2)C3)nc1 [Example 37, 6-(2-Adamantan-1-yl-2-oxo-ethylsulfanyl)-nicotinamide], which inhibition at 1 µM is on record?
Answer: > 60%

Question: For O=C(C[S+]([O-])Cc1ccc(Cl)nc1)C12CC3CC(CC(C3)C1)C2 (stereo not drawn) [Example 65, 1-Adamantan-1-yl-2-(6-chloro-pyridin-3-ylmethanesulfinyl)-ethanone], which inhibition at 1 µM is on record?
Answer: > 60%

Question: For O=C(CS(=O)(=O)Cc1ccccn1)C12CC3CC(CC(C3)C1)C2 [Example 16, 1-Adamantan-1-yl-2-(pyridin-2-ylmethanesulfonyl)-ethanone], which inhibition at 1 µM is on record?
Answer: > 60%

Question: Which inhibition at 1 µM does the source give for Cn1ccnc1SCC(=O)C1(c2ccc(Cl)cc2)CCCCC1 [Example 40, 1-[1-(4-Chloro-phenyl)-cyclohexyl]-2-(1-methyl-1H-imidazol-2-ylsulfanyl)-ethanone] here?
Answer: 20 to 60%
